Holding throughout (format): cell-based
One experiment deals with T1, KRAS G12V (Homo sapiens, UniProt P01116, G12V).
T1 construct: SW620-KRAS (G12V)-HiBit-KI cell (Pharmaron); host or cells: SW620-KRAS (G12V)-HiBit-KI cells (HiBiT knock-in at the endogenous KRAS locus)
Briefly: KRAS G12V HiBit assay. Conditions: SW620-KRAS (G12V)-HiBit-KI cells, compound treatment for 24 hours. An outline of the steps: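 HiBiT-tagged KRAS G12V cells treated 24 h with compound in a 3-fold, 10-point series (0.3 mM DMSO stock); lytic HiBiT reagent with LgBiT added after 15 min room-temperature equilibration. Degradation calculated against 0.1% DMSO high control.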
For orientation: With HiBiT, luminescence reflects the tagged protein that the partner subunit can reach.

The target in a further experiment is T2, KRAS G12D (Homo sapiens, UniProt P01116, G12D).
T2 construct: AsPc-1-KRAS (G12D)-HiBit-KI cell (Pharmaron); host or cells: AsPc-1-KRAS (G12D)-HiBit-KI cells (HiBiT knock-in at the endogenous KRAS locus)
T2 sequence (P01116 1-188 isoform P01116-2 G12D): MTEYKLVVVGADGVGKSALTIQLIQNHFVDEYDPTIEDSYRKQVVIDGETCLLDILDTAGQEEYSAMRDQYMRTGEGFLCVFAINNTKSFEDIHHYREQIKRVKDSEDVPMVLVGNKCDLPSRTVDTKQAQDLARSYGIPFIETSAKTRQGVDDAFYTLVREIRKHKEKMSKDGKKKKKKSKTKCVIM
Kind of experiment: KRAS G12D HiBit assay. The conditions noted are these: AsPc-1-KRAS (G12D)-HiBit-KI cell, compound treatment for 24 hours; for DC50: absolute DC50. An outline of the steps:
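Cells were treated for 24 h with compounds in a 3-fold, 10-point dilution series from a 0.3 mM DMSO stock, then equilibrated 15 min at room temperature. KRAS G12D HiBiT levels were read by luminescence after lytic Nano-Glo HiBiT reagent with LgBiT; inhibition calculated relative to 0.1% DMSO high control.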

The target in the next experiment is T3, KRAS (Homo sapiens, UniProt P01116).
T3 construct: endogenous in cells; host or cells: KE39 (KRAS amplified) cells
T3 sequence (P01116 1-188 isoform P01116-2): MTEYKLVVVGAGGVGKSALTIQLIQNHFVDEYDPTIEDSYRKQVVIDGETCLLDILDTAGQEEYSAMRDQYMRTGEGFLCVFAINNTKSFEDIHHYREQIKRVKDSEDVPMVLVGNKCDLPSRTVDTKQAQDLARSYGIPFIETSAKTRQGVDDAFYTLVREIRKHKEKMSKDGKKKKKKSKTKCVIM
Briefly: KRASamp MSD assay. Conditions: KE39 (KRAS amplified) cells, treated with test compounds for 24 hr, MSD readout of KRAS degradation. The protocol: KE39 (KRAS amplified) cells were cultured in RPMI 1640 medium (Gibco, 11875093), seeded into 96 well plate and treated with test compounds for 24 hr. The cells were washed with PBS and lysed in plate for 1 hr at 4° C. with agitation in RIPA buffer (Cat No. BP-115D) supplemented with protease and phosphatase inhibitor cocktail. The lysates were loaded into MSD plate coated with KRAS capture antibody (LSBio, C175665, 1:1000) for 1 h at RT with agitation. The plate was then washed three times with TBST and incubated with KRAS detection antibody (Abcam, Ab275876. 1:2000) for 1 h at RT. After washing three times with TBST, the plate was incubated with secondary detection antibody GAR (1:500) for 1 hr at RT followed with 3×TBST washing. 2×MSD reading buffer was added into individual wells and the plate was finally read by MSD reader (MSD, SQ 120 MM). The recombinant WT KRAS protein was used for standard curve generation and protein quantification. The degradation activity was calculated using the following formula: […]
DC50 was calculated by fitting the curve using GraphPad Prism v8.0.2 (analysis 263): […]

The mark [1] stands for this setting: numeric bounds given in place of class symbols.

A value given as a limit tells only on which side of the number the result lay.

T1 sequence (P01116 1-188 isoform P01116-2 G12V): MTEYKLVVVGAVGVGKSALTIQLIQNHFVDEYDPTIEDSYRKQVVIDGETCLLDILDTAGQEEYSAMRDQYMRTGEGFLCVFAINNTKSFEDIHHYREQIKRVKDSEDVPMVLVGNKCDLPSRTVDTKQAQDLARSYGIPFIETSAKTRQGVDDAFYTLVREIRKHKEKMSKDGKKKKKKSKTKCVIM

In the case of `Cn1c(=O)n(C2CCC(=O)NC2=O)c2ccc(C3CCN(CC4(F)CCN(C(=O)OC[C@@H]5CC[C@]6(COc7nc(N8CCC[C@@](C)(O)C8)c8cnc(-c9cc(O)cc%10ccc(F)cc9%10)c(F)c8n7)CCCN56)CC4)CC3)cc21` (stereo partly drawn) [Compound 446, ((3S,7aS)-7a-(((8-fluoro-7-(7-fluoro-3-hydroxynaphthalen-1-yl)-4-((R)-3-hydroxy-3-methylpiperidin-1-yl)pyrido[4,3-d]pyrimidin-2-yl)oxy)methyl)hexahydro-1H-pyrrolizin-3-yl)methyl 4-((4-(1-(2,6-dioxopiperidin-3-yl)-3-methyl-2-oxo-2,3-dihydro-1H-benzo[d]imidazol-5-yl)piperidin-1-yl)methyl)-4-fluoropiperidine-1-carboxylate], the values for the DC50 on KRAS G12V (class symbols), at KRAS G12D (class symbols) and at KRAS were less than 10 nM, less than 100 nM and less than 1 nM, respectively.
Take `CCc1c(F)ccc2cc(O)cc(-c3ncc4c(N5CCC[C@@](C)(O)C5)nc(OC[C@@]56CCCN5[C@H](COC(=O)N5CCC(CN7CCC(c8cc9c(cc8F)c(C8CCC(=O)NC8=O)nn9C)CC7)CC5)CC6)nc4c3F)c12` (stereo partly drawn) [Compound 102, ((3S,7aS)-7a-(((7-(8-ethyl-7-fluoro-3-hydroxynaphthalen-1-yl)-8-fluoro-4-((R)-3-hydroxy-3-methylpiperidin-1-yl)pyrido[4,3-d]pyrimidin-2-yl)oxy)methyl)hexahydro-1H-pyrrolizin-3-yl)methyl4-((4-(3-(2,6-dioxopiperidin-3-yl)-5-fluoro-1-methyl-1H-indazol-6-yl)piperidin-1-yl)methyl) piperidine-1-carboxylate]: the DC50 at KRAS G12V (class symbols) is less than 10 nM; on KRAS G12D (class symbols), less than 100 nM; on KRAS, less than 1 nM. In addition, on KRAS G12D (class symbols), the Dmax is more than 50%.
As for `CCc1c(F)ccc2cc(O)cc(-c3ncc4c(N5CCC[C@@](C)(O)C5)nc(OC[C@@]56CCCN5[C@H](COC(=O)N5CC7(CN(CC8CCN(c9ccc%10c(c9)n(C)c(=O)n%10C9CCC(=O)NC9=O)CC8)C7)C5)CC6)nc4c3F)c12` (stereo partly drawn) [Compound 462, ((3S,7aS)-7a-(((7-(8-ethyl-7-fluoro-3-hydroxynaphthalen-1-yl)-8-fluoro-4-((R)-3-hydroxy-3-methylpiperidin-1-yl)pyrido[4,3-d]pyrimidin-2-yl)oxy)methyl)hexahydro-1H-pyrrolizin-3-yl)methyl 6-((1-(1-(2,6-dioxopiperidin-3-yl)-3-methyl-2-oxo-2,3-dihydro-1H-benzo[d]imidazol-5-yl)piperidin-4-yl)methyl)-2,6-diazaspiro[3.3]heptane-2-carboxylate], the DC50 was less than 10 nM at KRAS G12V (class symbols), less than 100 nM on KRAS G12D (class symbols) and 1 to 10 nM at KRAS.
The like results for `CCc1c(F)ccc2cc(O)cc(-c3ncc4c(N5CCC[C@@](C)(O)C5)nc(OC[C@]56CCCN5[C@@H](COC(=O)N5CCC(CN7CCC(c8cc9c(cc8F)n(C8CCC(=O)NC8=O)c(=O)n9C)CC7)CC5)CC6)nc4c3F)c12` (stereo partly drawn) [Compound 425, ((3R,7aR)-7a-(((7-(8-ethyl-7-fluoro-3-hydroxynaphthalen-1-yl)-8-fluoro-4-((R)-3-hydroxy-3-methylpiperidin-1-yl)pyrido[4,3-d]pyrimidin-2-yl)oxy)methyl)hexahydro-1H-pyrrolizin-3-yl)methyl 4-((4-(1-(2,6-dioxopiperidin-3-yl)-6-fluoro-3-methyl-2-oxo-2,3-dihydro-1H-benzo[d]imidazol-5-yl)piperidin-1-yl)methyl)piperidine-1-carboxylate] were, in that order, less than 10 nM, less than 100 nM and less than 1 nM.
In the case of `CCc1cccc2cc(O)cc(-c3ncc4c(N5CCC[C@@](C)(O)C5)nc(OC[C@@]56CCCN5[C@H](COC(=O)N5CCC(CN7CCC(c8ccc9c(c8)n(C)c(=O)n9C8CCC(=O)NC8=O)CC7)CC5)CC6)nc4c3F)c12` (stereo partly shown) [Compound 145], the DC50 at KRAS G12V (class symbols) was less than 10 nM; at KRAS G12D (class symbols), less than 100 nM; on KRAS, 1 to 10 nM.
On to `CCc1c(F)ccc2cc(O)cc(-c3ncc4c(N5CCC[C@@](C)(O)C5)nc(OC[C@@]56CCCN5[C@@H](COC(=O)N5CCC(CCCOc7ccc8c(c7)n(C)c(=O)n8C7CCC(=O)NC7=O)CC5)CC6)nc4c3F)c12` (stereo partly drawn) [Compound 316, ((3R,7aS)-7a-(((7-(8-ethyl-7-fluoro-3-hydroxynaphthalen-1-yl)-8-fluoro-4-((R)-3-hydroxy-3-methylpiperidin-1-yl)pyrido[4,3-d]pyrimidin-2-yl)oxy)methyl)hexahydro-1H-pyrrolizin-3-yl)methyl 4-(3-((1-(2,6-dioxopiperidin-3-yl)-3-methyl-2-oxo-2,3-dihydro-1H-benzo[d]imidazol-5-yl)oxy)propyl)piperidine-1-carboxylate], for which the DC50 is more than 100 nM at KRAS G12V (class symbols), more than 100 nM at KRAS G12D (setting [1]) and not below 10 nM at KRAS.
Regarding `C#Cc1c(F)ccc2cccc(-c3ncc4c(N5CCC[C@@](C)(O)C5)nc(OC[C@]56CCCN5[C@H](COC(=O)N5CCC(CN7CCC(c8ccc9c(c8)n(C)c(=O)n9C8CCC(=O)NC8=O)CC7)CC5)CC6)nc4c3F)c12` (stereo partly shown) [Compound 141], the results for the DC50 on KRAS G12V (numeric bounds), at KRAS G12D (setting [1]) and on KRAS were more than 79.2 nM, more than 100 nM and less than 1 nM, respectively.
With `CCc1c(F)ccc2cc(O)cc(-c3ncc4c(N5CCC[C@@](C)(O)C5)nc(OC[C@@]56CCCN5[C@H](COC(=O)Nc5ccc(N7CCC(c8ccc9c(c8)n(C)c(=O)n9C8CCC(=O)NC8=O)CC7)cc5)CC6)nc4c3F)c12` (stereo partly drawn) [Compound 451, ((3S,7aS)-7a-(((7-(8-ethyl-7-fluoro-3-hydroxynaphthalen-1-yl)-8-fluoro-4-((R)-3-hydroxy-3-methylpiperidin-1-yl)pyrido[4,3-d]pyrimidin-2-yl)oxy)methyl)hexahydro-1H-pyrrolizin-3-yl)methyl (4-(4-(1-(2,6-dioxopiperidin-3-yl)-3-methyl-2-oxo-2,3-dihydro-1H-benzo[d]imidazol-5-yl)piperidin-1-yl)phenyl)carbamate], the DC50 on KRAS G12V (class symbols) was less than 10 nM; on KRAS G12D (class symbols) it was less than 100 nM; at KRAS, less than 1 nM.
The like results for `C#Cc1c(F)ccc2cc(O)cc(-c3ncc4c(N5CCC[C@@](C)(O)C5)nc(OC[C@@]56CCCN5[C@H](COC(=O)N5CCC(OCC#Cc7ccc8c(c7)n(C)c(=O)n8C7CCC(=O)NC7=O)CC5)CC6)nc4c3F)c12` (stereo partly drawn) [Compound 373, ((3S,7aS)-7a-(((7-(8-ethynyl-7-fluoro-3-hydroxynaphthalen-1-yl)-8-fluoro-4-((R)-3-hydroxy-3-methylpiperidin-1-yl)pyrido[4,3-d]pyrimidin-2-yl)oxy)methyl)hexahydro-1H-pyrrolizin-3-yl)methyl 4-((3-(1-(2,6-dioxopiperidin-3-yl)-3-methyl-2-oxo-2,3-dihydro-1H-benzo[d]imidazol-5-yl)prop-2-yn-1-yl)oxy)piperidine-1-carboxylate] were, in that order, less than 10 nM, less than 100 nM and 1 to 10 nM.
Turning to `CCc1c(F)ccc2cc(O)cc(-c3ncc4c(N5CCC[C@@](C)(O)C5)nc(OC[C@@]56CCCN5[C@@H](COC(=O)N5CCC(CCOc7ccc8c(c7)n(C)c(=O)n8C7CCC(=O)NC7=O)CC5)CC6)nc4c3F)c12` (stereo partly drawn) [Compound 315, ((3R,7aS)-7a-(((7-(8-ethyl-7-fluoro-3-hydroxynaphthalen-1-yl)-8-fluoro-4-((R)-3-hydroxy-3-methylpiperidin-1-yl)pyrido[4,3-d]pyrimidin-2-yl)oxy)methyl)hexahydro-1H-pyrrolizin-3-yl)methyl 4-(2-((1-(2,6-dioxopiperidin-3-yl)-3-methyl-2-oxo-2,3-dihydro-1H-benzo[d]imidazol-5-yl)oxy)ethyl)piperidine-1-carboxylate], the DC50 at KRAS G12V (class symbols) was more than 100 nM; on KRAS G12D (setting [1]), more than 100 nM; on KRAS it was not below 10 nM.

(Values after patent publication US12599672B2, “KRAS proteolysis targeting chimeras” (PAQ Therapeutics Inc., priority 2023, dated 2026).)
